The values below come from ChEMBL document CHEMBL1201862, “PubChem BioAssay data set” (2004).

Structures are written as SMILES.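 Briefly, cells in 96-well plates were exposed to five compound concentrations for 48 h, and endpoints were estimated by linear interpolation. Abbreviation: GI50, concentration required for 50% inhibition of growth.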 Activity calls are given as the source filed them. No stated cut-off is given here; in the data, active = GI50 up to about 1.1 µM and inactive = higher.

What all share (assay): NCI-60 cell line screen, 48 h
Test [1] deals with OVCAR-4.
The test system of test [2] is A549.
Test [3] relates to OVCAR-3.
Test [4] concerns EKVX.
In test [5] the test system is MOLT-4.
In test [6] the test system is NCI-H460.
Test [7] relates to NCI-H522.
Test [8] deals with OVCAR-5.
Test [9] relates to TK-10.
Test [10] relates to PC-3.
Test [11] relates to MDA-MB-435.
The test system of test [12] is MDA-N.
Test [13] has as its system DU-145.
Test [14] concerns SF-268.
The test system of test [15] is HOP-62.
Test [16] relates to SR.
For test [17], the system named is MCF7.
Test [18] concerns HCC 2998.
The subject of test [19] is SN12C.

Take `COc1cc2c(c(OC)c1OC)-c1c(cc3c(c1OC)OCO3)CC(C)C(C)(O)C2OC(=O)c1ccccc1` (stereo not given): the GI50 was 35.3 µM (inactive) in test [1]; 42.1 µM (inactive) in test [2]; 29.9 µM (inactive) in [3]; 36 µM (inactive) in test [4]; 5.58 µM (inactive) in [5]; 33.3 µM (inactive) in test [6]. Further, the GI50 in test [7] was 24.6 µM (inactive); in [8], > 100 µM (inactive); in test [9], 96.2 µM (inactive); in test [10], 26.6 µM (inactive); in [11], 55 µM (inactive); in test [12], 60.7 µM (inactive). Besides, the GI50 was 69.8 µM (inactive) in [13]; 53.5 µM (inactive) in [14]; > 100 µM (inactive) in test [15]; 17.7 µM (inactive) in test [16]; 44.9 µM (inactive) in test [17]; 22.9 µM (inactive) in test [18]. Moreover, the GI50 in [19] was 40.5 µM (inactive).

As to `C[C@@]1(O)C[C@@H](N2C(=O)O[C@@H](c3ccccc3)[C@H]2c2ccccc2)[C@@H]1COCc1ccccc1`, the GI50 is 22.9 µM (inactive) in [1]; 22.6 µM (inactive) in test [2]; 17.3 µM (inactive) in test [3]; 20.5 µM (inactive) in test [4]; 5.41 µM (inactive) in test [5]; 17.7 µM (inactive) in test [6]. Further, the GI50 in test [7] was 15 µM (inactive); in test [8] it was 23.1 µM (inactive); in [9], 29.2 µM (inactive); in test [10] it was 15.9 µM (inactive); in test [11], 28.4 µM (inactive); in test [12], 16.2 µM (inactive). Besides, the GI50 in test [13] is 28.5 µM (inactive); in [14], 18.2 µM (inactive); in test [15] it was 29.2 µM (inactive); in test [16] it was 15 µM (inactive); in [17], 24.5 µM (inactive); in [18] it was 19.8 µM (inactive). The GI50 in test [19] was 17.4 µM (inactive).

As to `O=C(NCc1cccnc1)C(=O)NCc1cccnc1`, the GI50 was > 100 µM (inactive) in test [1]; > 100 µM (inactive) in test [2]; > 100 µM (inactive) in [3]; > 100 µM (inactive) in test [4]; 0.149 µM (active) in test [5]; > 100 µM (inactive) in [6]. Moreover, the GI50 in test [7], in test [8], in test [9], in [10], in test [11] and in test [12] was > 100 µM (inactive) in each case. In addition, the GI50 was > 100 µM (inactive) in [13]; > 100 µM (inactive) in test [14]; > 100 µM (inactive) in test [15]; 81.1 µM (inactive) in [16]; > 100 µM (inactive) in [17]; > 100 µM (inactive) in test [18]. Also, the GI50 in test [19] was > 100 µM (inactive).

Consider `O=C1Nc2ccccc2/C1=C/c1c(Cl)[nH]c2ccc(O)cc12`, for which the GI50 in [1] was 3.94 µM (inactive); in test [2], 4.54 µM (inactive); in [3], 1.77 µM (inactive); in test [4], 3.28 µM (inactive); in test [5], 1 µM (active); in [6] it was 3.61 µM (inactive). In addition, the GI50 in test [7] is 1.3 µM (inactive); in test [8], 4.04 µM (inactive); in test [9], 10.7 µM (inactive); in test [10], 2.32 µM (inactive); in test [11] it was 0.214 µM (active); in test [12], 0.194 µM (active). In addition, the GI50 in test [13] is 1.78 µM (inactive); in test [14] it was 3.77 µM (inactive); in [15] it was 2.59 µM (inactive); in [16], 0.177 µM (active); in [17], 1.17 µM (inactive); in [18], 11.7 µM (inactive). For the same molecule, the GI50 in test [19] is 0.641 µM (active).

On to `NC1CCCCC1NCCNC1CCCCC1N` (stereo not given), for which the GI50 in [1] was 47.2 µM (inactive); in test [2], 28.8 µM (inactive); in test [3], > 100 µM (inactive); in [4], > 100 µM (inactive); in test [5] it was 36.1 µM (inactive); in test [6], > 100 µM (inactive). The GI50 is > 100 µM (inactive) in test [7]; 20.9 µM (inactive) in [8]; > 100 µM (inactive) in test [9]; > 100 µM (inactive) in [10]; > 100 µM (inactive) in test [11]; > 100 µM (inactive) in test [12]. Further, the GI50 in test [13] is > 100 µM (inactive); in [14] it was > 100 µM (inactive); in test [15], 53.7 µM (inactive); in test [16], > 100 µM (inactive); in [17], 45.9 µM (inactive); in test [18], 32.8 µM (inactive). In test [19], the GI50 is > 100 µM (inactive).

With `CC(NC1=NCCO1)c1ccccc1Cl` (stereo not given), the GI50 was > 100 µM (inactive) in test [1]; > 100 µM (inactive) in test [2]; > 100 µM (inactive) in test [3]; > 100 µM (inactive) in test [4]; 91.8 µM (inactive) in [5]; > 100 µM (inactive) in test [6]. Further, the GI50 in test [7] was > 100 µM (inactive); in [8], > 100 µM (inactive); in test [9], > 100 µM (inactive); in test [10], 91 µM (inactive); in test [11] it was > 100 µM (inactive); in [12] it was > 100 µM (inactive). Also, the GI50 in test [13], in [14], in test [15], in test [16], in test [17] and in [18] was > 100 µM (inactive) each time. For the same molecule, the GI50 in test [19] was > 100 µM (inactive).

Regarding `COc1cc([C@H]2c3cc(O)c(OC)cc3C[C@]3(O)[C@@H]2CO[C@@H]3O)ccc1O`, the GI50 in test [1], in [2], in test [3], in test [4], in [5] and in test [6] was > 100 µM (inactive) in each case. Also, the GI50 in test [7], in test [8], in test [9], in test [10], in test [11] and in [12] was > 100 µM (inactive) each time. In addition, the GI50 in [13], in [14], in [15], in [16], in test [17] and in [18] was > 100 µM (inactive) each time. The GI50 in test [19] was > 100 µM (inactive).

Regarding `CNC(=O)OCc1c(COC(=O)NC)c(-c2ccc(-c3ccccc3)cc2)n(C)c1C`, the GI50 in test [1] was 3.08 µM (inactive); in test [2], 1.9 µM (inactive); in [3], 2.54 µM (inactive); in [4] it was 2.44 µM (inactive); in test [5], 0.299 µM (active); in test [6], 0.401 µM (active). The GI50 in test [7] was 1.58 µM (inactive); in test [8], 2.35 µM (inactive); in test [9], 3.15 µM (inactive); in test [10] it was 2.52 µM (inactive); in [11], 5.41 µM (inactive); in [12] it was 4.34 µM (inactive). For the same molecule, the GI50 in test [13] was 2.18 µM (inactive); in test [14] it was 0.755 µM (active); in test [15], 2.79 µM (inactive); in [16], 0.116 µM (active); in test [17], 2.75 µM (inactive); in test [18], 2.82 µM (inactive). Further, the GI50 in [19] was 0.726 µM (active).

For the molecule `Nc1nc(Cl)cc(NCC2(CO)CC(OCc3ccccc3)C2)n1` (stereo not given), the GI50 in test [1] is 27.5 µM (inactive); in test [2], 54.8 µM (inactive); in [3], 49.2 µM (inactive); in test [4], 7.82 µM (inactive); in [5] it was > 10 µM (inactive); in [6], 78.7 µM (inactive). Also, the GI50 in test [7] was 93.1 µM (inactive); in test [8], > 100 µM (inactive); in [9] it was 19.4 µM (inactive); in test [10] it was > 100 µM (inactive); in test [11] it was 43.6 µM (inactive); in [12], > 100 µM (inactive). The GI50 is > 100 µM (inactive) in test [13]; 14.8 µM (inactive) in test [14]; 68.4 µM (inactive) in test [15]; 25.1 µM (inactive) in [16]; 30.7 µM (inactive) in test [17]; > 100 µM (inactive) in [18]. The GI50 in test [19] is > 100 µM (inactive).

For the molecule `CCc1nc(N)nc(N)c1-c1ccc(Cl)c([N+](=O)[O-])c1`, the GI50 in [1] was 22.6 µM (inactive); in test [2], 0.0218 µM (active); in test [3] it was 8.05 µM (inactive); in test [4], 3.38 µM (inactive); in test [5], 0.258 µM (active); in test [6], < 0.028 µM (active). Besides, the GI50 in [7] was 0.719 µM (active); in test [8] it was 6.11 µM (inactive); in [9] it was 17.9 µM (inactive); in [10], 0.0897 µM (active); in test [11] it was 0.0752 µM (active); in [12], 0.0764 µM (active). Further, the GI50 in test [13] is 0.611 µM (active); in test [14] it was 0.239 µM (active); in test [15], 0.596 µM (active); in test [16], 0.0439 µM (active); in [17], 0.274 µM (active); in test [18], 2.95 µM (inactive). The GI50 in [19] is 1.79 µM (inactive).
